Test system: STAT5 Y694 phosphorylation
Test: Protein electrophoresis and blotting of STAT5 Y694 phosphorylation in Jurkat cells stimulated with human interferon beta
Format: cell-based
Conditions: for Inhibiting Ratio (0% for vehicle control): 1 hour pretreatment, 20 ng/ml human interferon beta 30 minutes, pSTAT5/GAPDH; for Example of Effect 1: Inhibiting Ability (Protein Electrophoresis and Blotting): observed pSTAT5 bands at 10 μM and 100 μM
Experimental: Example of Effect 1: Protein Electrophoresis and Blotting Experiment
Standard protein electrophoresis and chemiluminescence imaging equipment (Bio-Rad);
Protein lysate RIPA (Lianke Biological; Cat #WB020); Western blot transfer membrane PVDF (Millipore; Cat #IPVH00010);
Jurkat cells (ATCC American Standard Culture Center, TIB152) were cultured in a 6-well plate at a density of 1×10^6/ml with RPMI medium […] 10% fetal bovine serum in a humidified incubator at 37° C. and maintained at 5% carbon dioxide overnight. On the second day, the cells were pretreated with compounds of different concentrations (the mother liquor of the compound prepared by dimethyl sulfoxide was diluted in the medium at the required concentration) for 1 hour, and then stimulated with 20 ng/ml human interferon beta for 30 minutes, it was mixed thoroughly and then placed in an incubator at 37° C. environment. […] Then an appropriate volume of RIPA Lysis Solution was added, it was mixed well, and placed on ice for 1 hour, inverted and mixed several times in the middle. Then, the cell lysate was centrifuged at 12000 rpm at 4° C. for 10 minutes, and the supernatant was transferred to another test tube, aliquoted and stored at −20° C. until use.
An equal volume of protein lysate was mixed with an appropriate 6-fold protein loading buffer (Biyun Tian Biochemical Company P0015F), and the mixture was heated at 95 degrees for 10 minutes, after full denaturation, the protein sample was added to the polyacrylamide gel (self-made, raw material purchased from Soleibao Biotechnology Company A1010, 30% acrylamide solution), and electrophoresis was performed at the appropriate voltage for 1 hour, until the strips were fully separated. It was transferred to a polyvinylidene fluoride membrane according to standard procedures, and blocked with 5% skim milk for 1 hour, and the specified antibody was added, and it was diluted 1:1000 in 3% bovine serum albumin, and it was incubated overnight for four degrees. It was thoroughly rinsed, incubated with the secondary antibody, exposed to chemiluminescence and signals were collected. ImageJ software was used to quantify the obtained chemiluminescence results. The same area was selected, the gray values of STAT5 phosphorylation band and GAPDH band of each sample were analyzed, and the ratio of pSTAT5/GAPDH level was calculated. The value of the solvent-treated sample was 100%, and the remaining samples were converted into relative data in the same proportion, that is, the percentage corresponding to the solvent sample. […] The solvent control group was the same as the test compound group except that DMSO was used instead of the DMSO solution of the test compound. N1 (Pimozide) was a specific positive control.

| SMILES | Inhibiting Ratio (0% for vehicle control) (1 μM) | Inhibiting Ratio (0% for vehicle control) (10 μM) | Inhibiting Ratio (0% for vehicle control) (100 μM) | Example of Effect 1: Inhibiting Ability (Protein Electrophoresis and Blotting) |
| --- | --- | --- | --- | --- |
| O=C(Cc1ccc(C(F)(F)F)cc1)N[C@H]1CC[C@H](n2c(=O)[nH]c3ccccc32)CC1 [GEN1-022, Trans-N-(4-(2-oxo-2,3-dihydro-1H-benzo[d]imidazol-1-yl)cyclohexyl)-2-(4-(trifluoromethyl)phenyl)acetamide] | 15.8% | 29.5% | 81.2% | − |
| O=C(Cc1ccc(C(F)(F)F)cc1)N1CC(n2c(=O)[nH]c3ccccc32)C1 [GEN1-023, 1-(1-(2-(4-(trifluoromethyl)phenyl)acetyl)azetidin-3-yl)-1H-benzo[d]imidazole-2(3H)-one] | 9.4% | 33.3% | 93.6% | + |
| O=C(Cc1ccc(C(F)(F)F)cc1)N[C@H]1C[C@@H](n2c(=O)[nH]c3ccccc32)C1 [GEN1-024, N-((1s,3s)-3-(2-oxo-2,3-dihydro-1H-benzo[d]imidazol-1-yl)cyclobutyl)-2-(4-(trifluoromethyl)phenyl)acetamide] |  |  |  | − |
| O=C(Cc1ccc(C(F)(F)F)cc1)N[C@H]1C[C@H](n2c(=O)[nH]c3ccccc32)C1 [GEN1-025, N-((1r,3r)-3-(2-oxo-2,3-dihydro-1H-benzo[d]imidazol-1-yl)cyclobutyl)-2-(4-(trifluoromethyl)phenyl)acetamide] |  |  |  | − |
| O=C(Cc1ccc(C(F)(F)F)nc1)N1CCC(n2c(=O)[nH]c3ccccc32)CC1 [GEN1-027, 1-(1-(2-(6-(trifluoromethyl)pyridin-3-yl)acetyl)piperidin-4-yl)-1H-benzo[d]imidazole-2(3H)-one] |  |  |  | + |
| O=C(Cc1ccc(C(F)(F)F)cn1)N1CCC(n2c(=O)[nH]c3ccccc32)CC1 [GEN1-028, 1-(1-(2-(5-(trifluoromethyl)pyridin-2-yl)acetyl)piperidin-4-yl)-1H-benzo[d]imidazole-2(3H)-one] | 14.5% | 32.6% | 93.3% | − |
| O=C(Cc1cccc(C(F)(F)F)c1)N1CCC(n2c(=O)[nH]c3ccccc32)CC1 [GEN1-029, 1-(1-(2-(3-(trifluoromethyl)phenyl)acetyl)piperidin-4-yl)-1H-benzo[d]imidazole-2(3H)-one] | −74.1% | −67.7% | 92.3% | + |
| O=C(Cc1ccccc1C(F)(F)F)N1CCC(n2c(=O)[nH]c3ccccc32)CC1 [GEN1-030, 1-(1-(2-(2-(trifluoromethyl)phenyl)acetyl)piperidin-4-yl)-1H-benzo[d]imidazole-2(3H)-one] | 15.7% | 19.4% | 94.0% | − |
| O=C(Cc1ccc(C2CC2)cc1)N1CCC(n2c(=O)[nH]c3ccccc32)CC1 [GEN1-032, 1-(1-(2-(4-cyclopropylphenyl)acetyl)piperidin-4-yl)-1H-benzo[d]imidazole-2(3H)-one] | −16.3% | 13.8% | 94.9% | + |
| O=C(Cc1ccc(-c2ccccc2)cc1)N1CCC(n2c(=O)[nH]c3ccccc32)CC1 [GEN1-033, 1-(1-(2-([1,1′-biphenyl]-4-yl)acetyl)piperidin-4-yl)-1H-benzo[d]imidazole-2(3H)-one] | 12.8% | 7.6% | 98.0% | + |
| O=C(Cc1ccc(N2CCOCC2)cc1)N1CCC(n2c(=O)[nH]c3ccccc32)CC1 [GEN1-034, 1-(1-(2-(4-morpholinophenyl)acetyl)piperidin-4-yl)-1H-benzo[d]imidazole-2(3H)-one] |  |  |  | − |
| O=C(Cc1ccc(C(F)(F)F)cc1)N1CCC(n2c(=O)[nH]c3ncccc32)CC1 [GEN1-041, 1-(1-(2-(4-(trifluoromethyl)phenyl)acetyl)piperidin-4-yl)-1H-imidazo[4,5-b]pyridine-2(3H)-one] |  |  |  | + |
| O=C(Cc1ccc(C(F)(F)F)cc1)N1CCC(n2c(=O)[nH]c3cnccc32)CC1 [GEN1-042, 1-(1-(2-(4-(trifluoromethyl)phenyl)acetyl)piperidin-4-yl)-1H-imidazo[4,5-c]pyridin-2(3H)-one] |  |  |  | + |
| O=C(Cc1ccc(C(F)(F)F)cc1)N1CCC(n2c(=O)[nH]c3ccncc32)CC1 [GEN1-043, 3-(1-(2-(4-(trifluoromethyl)phenyl)acetyl)piperidin-4-yl)-1H-imidazo[4,5-c]pyridin-2(3H)-one] |  |  |  | − |
| O=C(Cc1ccc(C(F)(F)F)cc1)N1CCC(n2c(=O)[nH]c3cccnc32)CC1 [GEN1-044, 3-(1-(2-(4-(trifluoromethyl)phenyl)acetyl)piperidin-4-yl)-1H-imidazo[4,5-b]pyridin-2(3H)-one] |  |  |  | + |
| O=C1Nc2ccccc2C1C1CCN(C(=O)Cc2ccc(C(F)(F)F)cc2)CC1 (stereo not drawn) [GEN1-051, 3-(1-(2-(4-(trifluoromethyl)phenyl)acetyl)piperidin-4-yl)indol-2-one] |  |  |  | + |
| O=C(Cc1ccc(C(F)(F)F)cc1)N1CCC(N2c3ccccc3NS2(=O)=O)CC1 [GEN1-054, 1-(4-(2,2-dioxybenzo[c] [1,2,5]thiadiazole-1(3H)-yl)piperidin-1-yl)-2-(4-(trifluoromethyl)phenyl)ethenone] |  |  |  | − |
| O=C(Cc1ccc(C(F)(F)F)cc1)N1CCC(n2c(=O)n(O)c3ccccc32)CC1 [GEN1-059, 1-hydroxy-3-(1-(2-(4-(trifluoromethyl)phenyl)acetyl)piperidin-4-yl)-1H-benzo[d]imidazol-2(3H)-one] |  |  |  | − |
| N#CNc1nc2ccccc2n1C1CCN(C(=O)Cc2ccc(C(F)(F)F)cc2)CC1 [GEN1-061] |  |  |  | + |
| O=C(Cc1ccc(C(F)(F)F)cc1)NCC1Cc2cccc3[nH]c(=O)n(c23)C1 (stereo not drawn) [GEN1-065] |  |  |  | − |
| O=c1[nH]c2ccccc2n1C1CCN(S(=O)(=O)Cc2ccc(C(F)(F)F)cc2)CC1 [GEN1-068, 1-(1-((4-(trifluoromethyl)benzyl)sulfonyl)piperidin-4-yl)-1H-benzo[d]imidazol-2(3H)-one] |  |  |  | − |
| COc1ccc(CC(=O)N2CCC(n3c(=O)[nH]c4ccccc43)CC2)cc1 [GEN1-070, 1-(1-(2-(4-methoxyphenyl)acetyl)piperidin-4-yl)-1H-benzo[d]imidazol-2(3H)-one] |  |  |  | − |
| O=C(Cc1ccc(O)cc1)N1CCC(n2c(=O)[nH]c3ccccc32)CC1 [GEN1-071, 1-(1-(2-(4-hydroxyphenyl)acetyl)piperidin-4-yl)-1H-benzo[d]imidazol-2(3H)-one] |  |  |  | − |
| O=C(Cc1ccc2ccccc2c1)N1CCC(n2c(=O)[nH]c3ccccc32)CC1 [GEN1-073, 1-(1-(2-(naphth-2-yl)acetyl)piperidin-4-yl)-1H-benzo[d]imidazol-2(3H)-one] |  |  |  | + |
| O=C(Cc1ccc(C(F)(F)F)o1)N1CCC(n2c(=O)[nH]c3ccccc32)CC1 [GEN1-078, 1-(1-(2-(5-(trifluoromethyl)furan-2-yl)acetyl)piperidin-4-yl)-1H-benzo[d]imidazol-2(3H)-one] |  |  |  | + |
| O=C(Cc1ccc(C(F)(F)F)cc1)NCc1cnc2c(c1)CC(=O)N2 [GEN1-083, N-((2-oxo-2,3-dihydro-1H-pyrrolo[2,3-b]pyridin-5-yl)methyl)-2-(4-(trifluoromethyl)phenyl)acetamide] |  |  |  | − |
| O=C(Cc1ccc(C(F)(F)F)cc1)NCc1ccc2c(c1)C(=O)NC2 [GEN1-084, N-((3-oxoisoindol-5-yl)methyl)-2-(4-(trifluoromethyl)phenyl)acetamide] |  |  |  | + |

Source: patent publication US20230099441A1, “HETEROCYCLIC COMPOUND, APPLICATION THEREOF, AND COMPOSITION CONTAINING SAME” (GenEros Biopharma Ltd., priority 2019, published 2023)
